Read-outs that look alike come from different tables or passages of the source.
Key:
Mnk1 = Mnk1 (Homo sapiens (Human), UniProt Q9BUB5); test: Mnk1 kinase inhibition, ADP-Glo ADP monitoring assay; format: biochemical
Procedure: (§1) The synthesized compounds then were tested for inhibition of the kinase activity (IC50) of Mnk1 and/or Mnk2 using the ADP monitoring assay for kinases described in Zegzouti, H.; Zdanovskaia, M.; Hsiao, K.; Goueli, S. A., ADP-Glo: A Bioluminescent and homogeneous ADP monitoring assay for kinases.

Mnk2 = Mnk2 (Homo sapiens (Human), UniProt Q9HBH9); test: Mnk2 kinase inhibition, ADP-Glo ADP monitoring assay; format: biochemical
Procedure: as §1

[1] = ADP-Glo kinase assay, read-out: Mnk2 IC50
[2] = unit inferred, read-out: Mnk1 IC50
[3] = ADP-Glo kinase assay, unit inferred, read-out: Mnk2 IC50
[4] = read-out: Mnk1 inhibition IC50 (+,++,+++)
[5] = ADP-Glo kinase assay, read-out: Mnk2 inhibition IC50 (+,++,+++)

Chain of Mnk2 (Q9HBH9 whole entry): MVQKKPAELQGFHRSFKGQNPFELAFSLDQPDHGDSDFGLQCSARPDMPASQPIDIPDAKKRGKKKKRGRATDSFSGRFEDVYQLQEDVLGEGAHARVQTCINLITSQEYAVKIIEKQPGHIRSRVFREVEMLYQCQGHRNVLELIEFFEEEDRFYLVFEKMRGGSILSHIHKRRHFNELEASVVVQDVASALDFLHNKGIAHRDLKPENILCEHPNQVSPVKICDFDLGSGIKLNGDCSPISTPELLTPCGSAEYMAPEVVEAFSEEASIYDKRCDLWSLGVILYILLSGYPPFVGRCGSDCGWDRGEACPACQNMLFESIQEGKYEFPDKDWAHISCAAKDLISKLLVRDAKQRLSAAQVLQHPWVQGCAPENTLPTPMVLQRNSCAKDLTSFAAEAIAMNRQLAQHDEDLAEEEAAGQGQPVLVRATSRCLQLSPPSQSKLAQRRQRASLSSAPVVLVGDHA
Chain of Mnk1 (Q9BUB5 whole entry): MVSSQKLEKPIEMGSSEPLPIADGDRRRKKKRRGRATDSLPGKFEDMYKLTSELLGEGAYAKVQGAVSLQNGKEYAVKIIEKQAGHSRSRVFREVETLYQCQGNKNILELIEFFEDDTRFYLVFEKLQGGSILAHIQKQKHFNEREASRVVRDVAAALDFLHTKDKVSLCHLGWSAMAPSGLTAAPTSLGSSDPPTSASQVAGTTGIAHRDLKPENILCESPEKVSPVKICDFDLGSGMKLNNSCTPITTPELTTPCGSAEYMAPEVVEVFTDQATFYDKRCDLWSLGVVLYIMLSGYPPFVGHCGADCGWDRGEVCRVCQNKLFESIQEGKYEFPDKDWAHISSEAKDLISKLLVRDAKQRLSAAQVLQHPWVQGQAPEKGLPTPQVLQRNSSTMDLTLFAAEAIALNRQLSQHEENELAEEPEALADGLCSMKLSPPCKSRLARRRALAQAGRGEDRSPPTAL

Compound: c1ccc2c(c1)NCCN2c1ccnc(NCCc2ccncc2)n1 [NUCC-0175722]
- IC50 (Mnk1; read-out: Mnk1 IC50): 1200 nM
- IC50 (Mnk2; [1]): 250 nM

Compound: O[C@@H](c1ccccc1)[C@H](Nc1ccnc(-n2cnc3ccccc32)n1)c1ccccc1 [NUCC-0196258]
- IC50 (Mnk1; [2]): > 10000 nM
- IC50 (Mnk2; [3]): 7000 nM

Compound: Fc1cc(CCOc2ncc(Cl)c(-n3cnc4ccccc43)n2)ccn1 [NUCC-0201046, 1-(5-chloro-2-(2-(2-fluoropyridin-4-yl)ethoxy)pyrimidin-4-yl)-1H-benzo[d]imidazole]
- IC50 (Mnk1; [4]): < 1000 nM
- IC50 (Mnk2; [5]): < 1000 nM

Compound: N#Cc1cnc(OC2CC(N)C2)nc1-n1cnc(-c2ccc(Cl)c(Cl)c2)c1 (stereo not shown) [NUCC-0201248]
- IC50 (Mnk1; [4]): 1000 to 10000 nM
- IC50 (Mnk2; [5]): < 1000 nM

Compound: Oc1cnc(NCCc2ccncc2)nc1-n1cnc2ccccc21 [NUCC-0196263]
- IC50 (Mnk1; [2]): > 10000 nM
- IC50 (Mnk2; [3]): > 10000 nM

Compound: N[C@H]1C[C@H](Oc2ncc(Cl)c(-n3cnc4ccccc43)n2)C1 [NUCC-0201052]
- IC50 (Mnk1; [4]): < 1000 nM
- IC50 (Mnk2; [5]): < 1000 nM

Compound: Brc1cnc(NCCc2ccncc2)nc1-n1cnc2ccccc21 [NUCC-0196228]
- IC50 (Mnk1; [2]): 550 nM
- IC50 (Mnk2; [3]): 69 nM

Compound: N#Cc1cnc(Oc2cccnc2)nc1-n1cnc2ccccc21 [NUCC-0200794]
- IC50 (Mnk1; [4]): 1000 to 10000 nM
- IC50 (Mnk2; [5]): < 1000 nM

Compound: N#Cc1cnc(OCCc2cccnc2)nc1-n1cnc2ccccc21 [NUCC-0201005]
- IC50 (Mnk1; [4]): 1000 to 10000 nM
- IC50 (Mnk2): 1000 to 10000 nM

Compound: c1ccc2c(c1)ncn2-c1ccnc(Nc2ccc(-n3cccn3)cc2)n1 [NUCC-0125593]
- IC50 (Mnk1; read-out: Mnk1 IC50): 650 nM
- IC50 (Mnk2; [1]): 39 nM

Compound: Clc1cccc(CCOc2ncc(Cl)c(-n3cnc4ccccc43)n2)n1 [NUCC-0201021]
- IC50 (Mnk1; [4]): < 1000 nM
- IC50 (Mnk2; [5]): < 1000 nM

Compound: N#Cc1cnc(-n2cnc3ccccc32)nc1OCCc1ccnc(F)c1 [NUCC-0201907]
- IC50 (Mnk1; [4]): < 1000 nM
- IC50 (Mnk2; [5]): < 1000 nM

Compound: O=c1c2ccccc2nnn1-c1ccnc(NCCc2ccncc2)n1 [NUCC-0176350]
- Mnk1 IC50 (Mnk1): no activity
- Mnk2 IC50 (Mnk2; ADP-Glo kinase assay): no activity

Compound: COC(=O)CNc1ncc(Cl)c(-n2cnc3ccccc32)n1 [NUCC-0176356]
- IC50 (Mnk1; read-out: Mnk1 IC50): 11000 nM
- IC50 (Mnk2; [1]): 1400 nM

Compound: c1ccc(C2CC2Nc2nccc(-n3cnc4ccccc43)n2)cc1 (stereo not shown) [NUCC-0196255]
- IC50 (Mnk1; [2]): > 10000 nM
- IC50 (Mnk2; [3]): 920 nM

Compound: N[C@H]1C[C@@H](Oc2ncc(Cl)c(-n3cnc4ccccc43)n2)C1 [NUCC-0201047]
- IC50 (Mnk1; [4]): < 1000 nM
- IC50 (Mnk2; [5]): < 1000 nM

Compound: Clc1cnc(OCCN2CCOCC2)nc1-n1cnc2ccccc21 [NUCC-0200806]
- IC50 (Mnk1; [4]): 1000 to 10000 nM
- IC50 (Mnk2; [5]): < 1000 nM

Compound: Clc1cnc(NC2CCC2)nc1-n1cnc2ccccc21 [NUCC-0201050]
- IC50 (Mnk1; [4]): 1000 to 10000 nM
- IC50 (Mnk2): 1000 to 10000 nM

Compound: c1cc(NCCc2ccncc2)nc(-n2cnc3ccccc32)c1 [NUCC-0196235]
- IC50 (Mnk1; [2]): 100 nM
- IC50 (Mnk2; [3]): 10 nM

Compound: COCCNc1nccc(-n2cnc3ccccc32)n1 [NUCC-0176342]
- IC50 (Mnk1; read-out: Mnk1 IC50): 1600 nM
- IC50 (Mnk2; [1]): 200 nM

Compound: c1ccc(Cn2cc(-c3ccnc(NCCc4c[nH]cn4)c3)cn2)cc1 [NUCC-0077167]
- IC50 (Mnk1; read-out: Mnk1 IC50): 8000 nM
- IC50 (Mnk2; [1]): 7600 nM

Compound: COC(=O)c1cnc(NCCc2ccncc2)nc1-n1cnc2ccccc21 [NUCC-0196309]
- IC50 (Mnk1; [2]): > 10000 nM
- IC50 (Mnk2; [3]): > 10000 nM

Compound: CCc1nc(OC2CC(N)C2)nc(-n2cnc3ccccc32)c1Cl (stereo not shown) [NUCC-0201916]
- IC50 (Mnk1; [4]): 1000 to 10000 nM
- IC50 (Mnk2): 1000 to 10000 nM

Compound: CC(C)(COc1ncc(C#N)c(-n2cnc3ccccc32)n1)c1ccnc(F)c1 [NUCC-0201917]
- IC50 (Mnk1; [4]): < 1000 nM
- IC50 (Mnk2; [5]): < 1000 nM

Compound: CC(C)(COc1ncc(Cl)c(OCC(C)(C)c2ccnc(F)c2)n1)c1ccnc(F)c1 [NUCC-0201919]
- IC50 (Mnk1; [4]): 1000 to 10000 nM
- IC50 (Mnk2): 1000 to 10000 nM

Compound: Nc1ccnc(-n2cnc3ccccc32)n1 [NUCC-0176349]
- IC50 (Mnk1; read-out: Mnk1 IC50): 4100 nM
- IC50 (Mnk2; [1]): 1400 nM

Compound: Clc1cc(Cl)nc(CCOc2ncc(Cl)c(-n3cnc4ccccc43)n2)c1 [NUCC-0201022]
- IC50 (Mnk1; [4]): 1000 to 10000 nM
- IC50 (Mnk2): 1000 to 10000 nM

Compound: Nc1cnc(NCCc2ccncc2)nc1-n1cnc2ccccc21 [NUCC-0196231]
- IC50 (Mnk1; [2]): > 10000 nM
- IC50 (Mnk2; [3]): > 10000 nM

Compound: CCNC(=O)Nc1nccc(-n2cnc3ccccc32)n1 [NUCC-0196222]
- IC50 (Mnk1; [2]): > 10000 nM
- IC50 (Mnk2; [3]): 2200 nM

Compound: c1ccc2c(c1)OCCN2c1ccnc(NCCc2ccncc2)n1 [NUCC-0176230]
- IC50 (Mnk1; read-out: Mnk1 IC50): 5100 nM
- IC50 (Mnk2; [1]): 3500 nM

Compound: c1ccc2c(c1)CCN2c1ccnc(N[C@@H]2CCOC2)n1 [NUCC-0176232]
- IC50 (Mnk1; read-out: Mnk1 IC50): 4600 nM
- IC50 (Mnk2; [1]): 2300 nM

Compound: c1ccc2c(c1)ccn2-c1cc(NCCc2ccncc2)ncn1 [NUCC-0176285]
- IC50 (Mnk1; read-out: Mnk1 IC50): 4700 nM
- IC50 (Mnk2; [1]): 6000 nM

Compound: N#Cc1cnc(NCCc2ccncc2)nc1-n1cnc(-c2ccccc2)c1 [NUCC-0196264]
- IC50 (Mnk1; [2]): 96 nM
- IC50 (Mnk2; [3]): 57 nM

Compound: CC(C)(COc1ncc(Cl)c(-n2cnc3ccccc32)n1)c1ccncc1 [NUCC-0201593, 1-(5-chloro-2-(2-methyl-2-(pyridin-4-yl)propoxy)pyrimidin-4-yl)-1H-benzo[d]imidazole]
- IC50 (Mnk1; [4]): 1000 to 10000 nM
- IC50 (Mnk2; [5]): < 1000 nM

Compound: CCOC(=O)c1cnc(NCCc2ccncc2)nc1-n1cnc2ccccc21 [NUCC-0196310]
- IC50 (Mnk1; [2]): 2100 nM
- IC50 (Mnk2; [3]): 5400 nM
